Measured values taken from ChEMBL document CHEMBL3397035, “Spectral and biological evaluation of a synthetic antimicrobial peptide derived from 1-aminocyclohexane carboxylic acid” (2015).
Values after ≈ are worked out from the molar mass of the structure shown. Active and inactive are the calls of the source. No cut-off for these calls is given here. Square brackets hold non-standard residues; d marks the D form. Peptide text beside a SMILES is read from it. Ac6c = NC1(C(=O)O)CCCCC1

Experiments:
[1] = tested on: Lipid bilayer; assay: Binding affinity to 3.5 mM small unilamellar vesicles containing 4:1 POPC/POPG with pH 6.8 sodium phosphate buffer by Far-UV-CD spectra
[2] = tested on: Staphylococcus aureus; assay: Antibacterial activity against methicillin-sensitive Staphylococcus aureus UAMS-1 after 24 hrs by standard broth microdilution method; type: functional; details: UAMS-1, 24 h
[3] = Binding affinity to 80 mM Dodecylphosphocholine micelles assessed as Lys connectivities with pH 4.4 sodium acetate buffer by TOCSY spectra
[4] = tested on: Klebsiella pneumoniae; assay: Antibacterial activity against ampicillin, azithromycin, chloramphenicol, gentamicin, and tetracycline-resistant Klebsiella pneumoniae BAMS clinical isolate 07-18 after 24 hrs by standard broth microdilution method; type: functional; details: BAMS clinical isolate 07-18, 24 h
[5] = tested on: Lipid bilayer; assay: Binding affinity to 3.5 mM small unilamellar vesicles containing 60% POPE/21%POPG/19%POPC with pH 6.8 sodium phosphate buffer by Far-UV-CD spectra
[6] = tested on: Lipopolysaccharide (LPS); assay: Binding affinity to lipopolysaccharides collected from Escherichia coli assessed as helical conformation with 40 mM sodium phosphate buffer at pH 6.8
[7] = tested on: Enterococcus faecium; assay: Antibacterial activity against Enterococcus faecium MMC4 after 24 hrs by standard broth microdilution method; type: functional; details: MMC4, 24 h
[8] = tested on: Acinetobacter baumannii; assay: Antibacterial activity against ampicillin, gentamicin, kanamycin, streptomycin, and tetracycline-resistant Acinetobacter baumannii WRAIR clinical isolate 13 after 24 hrs by standard broth microdilution method; type: functional; details: WRAIR clinical isolate 13, 24 h
[9] = tested on: Pseudomonas aeruginosa; assay: Antibacterial activity against Pseudomonas aeruginosa PAO1 after 24 hrs by standard broth microdilution method; type: functional; details: PAO1, 24 h
[10] = tested on: Lipopolysaccharide (LPS); assay: Binding affinity to lipopolysaccharides collected from Klebsiella pneumoniae assessed as helical conformation with 40 mM sodium phosphate buffer at pH 6.8
[11] = Binding affinity to sodium dodecyl sulfate micelles assessed as Lys connectivities with pH 4.4 sodium acetate buffer by TOCSY spectra
[12] = tested on: Klebsiella aerogenes; assay: Antibacterial activity against Enterobacter aerogenes after 24 hrs by standard broth microdilution method; type: functional
[13] = tested on: Lipopolysaccharide (LPS); assay: Binding affinity to lipopolysaccharides collected from Pseudomonas aeruginosa assessed as helical conformation with 40 mM sodium phosphate buffer at pH 6.8
[14] = tested on: Lipid bilayer; assay: Binding affinity to 3.5 mM small unilamellar vesicles containing POPC with pH 6.8 sodium phosphate buffer by Far-UV-CD spectra

CC(=O)NCC(=O)N[C@@H](Cc1ccccc1)C(=O)NC1(C(=O)NCC(=O)NC2(C(=O)N[C@@H](CCCCN)C(=O)NC3(C(=O)NCC(=O)NC4(C(=O)N[C@@H](Cc5ccccc5)C(=O)NC5(C(=O)NCC(=O)NC6(C(=O)NCC(=O)N[C@@H](CCCCN)C(=O)NC7(C(=O)N[C@@H](CCCCN)C(=O)N[C@@H](CCCCN)C(=O)N[C@@H](CCCCN)C(=O)N[C@@H](CCCCN)C(N)=O)CCCCC7)CCCCC6)CCCCC5)CCCCC4)CCCCC3)CCCCC2)CCCCC1 (Ac-GF[Ac6c]G[Ac6c]K[Ac6c]G[Ac6c]F[Ac6c]G[Ac6c]GK[Ac6c]KKKK-NH2)
Activity [1]: Active
MIC [2]: 10.9 µM (≈ 24.9 µg/mL)
Activity [3]: Active
MIC [4]: 43 µM (≈ 98.2 µg/mL)
Activity [5]: Active
Activity [6]: Active
MIC [7]: 10.9 µM (≈ 24.9 µg/mL)
MIC [8]: 10.9 µM (≈ 24.9 µg/mL)
MIC [9]: 21.9 µM (≈ 50 µg/mL)
Activity [10]: Active
Activity [11]: Active
MIC [12]: 21.9 µM (≈ 50 µg/mL)
Activity [13]: Active
Activity [14]: inactive
